Laboratory results as given in BigSolDB 2.1.

CC(C)(C)NSc1nc2ccccc2s1
solubility (mole fraction)
Conditions	273.2 K	278.2 K	283.2 K	288.2 K	293.2 K	298.2 K	303.2 K	308.2 K	313.2 K
in ethanol	0.00951	0.0111	0.0133	0.0157	0.0198	0.0236	0.0278	0.0344	0.0419
in isopropanol	0.00844	0.00938	0.0122	0.015	0.0176	0.0208	0.025	0.0298	0.0352
in methanol	0.00591	0.00707	0.00834	0.00991	0.0123	0.0148	0.0178	0.0219	0.0266
in n-butanol	0.0177	0.0202	0.0237	0.028	–	0.0375	0.0444	0.0524	0.061
in tert-butylamine	0.0952	0.107	0.115	0.124	0.135	0.149	0.165	0.176	0.198
in toluene	0.0273	0.0355	0.0422	0.0518	0.0605	0.0691	0.084	0.102	0.122
